Where two headings read alike, the source gives them in different places.
Columns and labels:
recombinant human GALK1 = recombinant human GALK1 (Homo sapiens, UniProt P51570); experiment: hGALK1 biochemical activity assay (Kinase-Glo Plus, ATP depletion)
Summary of the method: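 Recombinant human or mouse GALK1 (5 nM, with 100 μM galactose, in the added enzyme solution) was run with ATP (35 μM in the substrate solution) in HEPES pH 8.0 buffer. Compounds were tested at 11 1/3-step concentrations from 57.4 μM to 0.97 nM. After 1 h at room temperature, remaining ATP was read by Kinase-Glo Plus luminescence.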

recombinant mouse GALK1 = recombinant mouse GALK1 (Mus musculus, UniProt Q9R0N0); experiment: mGALK1 biochemical activity assay (Kinase-Glo Plus, ATP depletion)
Chain of recombinant mouse GALK1 (Q9R0N0 whole entry): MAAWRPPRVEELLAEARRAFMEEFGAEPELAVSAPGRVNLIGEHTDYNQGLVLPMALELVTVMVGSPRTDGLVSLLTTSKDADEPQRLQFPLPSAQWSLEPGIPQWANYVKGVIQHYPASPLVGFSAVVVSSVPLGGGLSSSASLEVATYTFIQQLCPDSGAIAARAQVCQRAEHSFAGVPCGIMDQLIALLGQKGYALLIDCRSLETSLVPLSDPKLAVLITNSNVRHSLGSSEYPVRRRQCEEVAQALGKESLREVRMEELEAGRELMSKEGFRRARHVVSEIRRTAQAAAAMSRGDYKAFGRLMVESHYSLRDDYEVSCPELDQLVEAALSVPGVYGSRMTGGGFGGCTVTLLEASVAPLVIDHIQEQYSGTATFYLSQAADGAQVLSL
Summary of the method: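 Recombinant GALK1 (5 nM) with 100 μM galactose; GALK1 turnover read as ATP depletion by Kinase-Glo Plus luminescence. Reaction ran 1 h at room temperature before detection reagent was added.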

[1] = aqueous kinetic solubility
[2] = rat microsomal stability (RLM)
[3] = Tables 2-15, 35 μM ATP, 100 μM galactose, 1 h, bracketed figure after some values (e.g. −1.2) is undefined and not reported, read-out: hGALK IC50
[4] = recombinant human GALK1, Kinase-Glo Plus ATP depletion, read-out: hGALK
[5] = Tables 2-15, 35 μM ATP, 100 μM galactose, 1 h, bracketed figure after some values is undefined and not reported, read-out: mGALK IC50
[6] = recombinant mouse GALK1, Kinase-Glo Plus ATP depletion, read-out: mGALK

Chain of recombinant human GALK1 (P51570 whole entry): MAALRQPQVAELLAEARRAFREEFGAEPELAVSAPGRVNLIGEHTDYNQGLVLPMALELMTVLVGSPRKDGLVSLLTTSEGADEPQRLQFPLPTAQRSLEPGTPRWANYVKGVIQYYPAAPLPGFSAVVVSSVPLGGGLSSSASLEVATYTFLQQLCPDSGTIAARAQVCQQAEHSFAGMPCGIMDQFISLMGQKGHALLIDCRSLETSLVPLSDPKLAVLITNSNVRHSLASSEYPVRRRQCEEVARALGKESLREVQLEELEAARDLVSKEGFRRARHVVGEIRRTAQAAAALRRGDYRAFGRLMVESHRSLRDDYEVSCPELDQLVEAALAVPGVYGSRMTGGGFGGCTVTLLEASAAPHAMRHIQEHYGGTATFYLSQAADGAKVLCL

Row | SMILES | IC50 (recombinant human GALK1; [3]) [µM] | IC50 (recombinant human GALK1; [4]) [µM] | IC50 (recombinant mouse GALK1; [5]) [µM] | IC50 (recombinant mouse GALK1; [6]) [µM] | Perm. (1 × 10^−6 cm/sec) (PAMPA permeability) | Sol. [1] [µg/mL] | Metab. Stabil. (m) ([2]; microsomal half-life) | Perm. (1 × 10^−6 cm/sec) (PAMPA permeability; PAMPA) | Sol. ([1]; aqueous kinetic solubility) [µg/mL] | Metab. Stabil. (m) ([2]; microsomal stability half-life) | hGALK IC50 (recombinant human GALK1; Tables 2-15, 35 μM ATP, 100 μM galactose, 1 h, bracketed figure after some values (e.g. −1.2) is undefined and not reported) | hGALK (μM) (recombinant human GALK1; recombinant human GALK1, Kinase-Glo Plus ATP depletion) | mGALK IC50 (recombinant mouse GALK1; Tables 2-15, 35 μM ATP, 100 μM galactose, 1 h, bracketed figure after some values is undefined and not reported) | mGALK (μM) (recombinant mouse GALK1; recombinant mouse GALK1, Kinase-Glo Plus ATP depletion) | IC50 (recombinant human GALK1; recombinant human GALK1, Kinase-Glo Plus ATP depletion, bracketed figure in the cell, e.g. (−1.2), is not defined in the text shown, read-out: hGALK) [µM] | IC50 (recombinant mouse GALK1; recombinant mouse GALK1, Kinase-Glo Plus ATP depletion, bracketed figure in the cell, e.g. (−1.2), is not defined in the text shown, read-out: mGALK) [µM] | Metab. Stabil. (m) ([2]; microsomal stability half-life, minutes)
1 | COc1ccc([C@@H]2N=C(Nc3nc4cccc(N)c4o3)NC(C)=C2C(=O)Nc2cc(C(=O)O)ccn2)c(Cl)c1 [Compound 87, (R)-2-(2-((7-aminobenzo[d]oxazol-2-yl)amino)-4-(2-chloro-4-methoxyphenyl)-6-methyl-1,4-dihydropyrimidine-5-carboxamido)isonicotinic acid] | 0.15 | 0.15 | 2.43 | 2.43 | <1 1 × 10^−6 cm/sec | >81 | >30 |  |  |  |  |  |  |  |  |  | 
2 | CCn1ncc(CNC(=O)C2=C(C)NC(Nc3nc4ccc(F)c(N)c4o3)=NC2c2ccc(C)cc2Cl)c1F (stereo not drawn) [Compound 133, 2-((7-amino-6-fluorobenzo[d]oxazol-2-yl)amino)-4-(2-chloro-4-methylphenyl)-N-((1-ethyl-5-fluoro-1H-pyrazol-4-yl)methyl)-6-methyl-1,4-dihydropyrimidine-5-carboxamide] | 0.11 | 0.11 | 1.09 | 1.09 |  |  |  | 427.4 1 × 10^−6 cm/sec | <1 | 7.036 |  |  |  |  |  |  | 
3 | CC1=C(C(=O)NCc2cnn(CC(F)(F)F)c2)C(c2ccc(C)cc2Cl)N=C(Nc2nc3ccc(F)c(N)c3o2)N1 (stereo not drawn) [Compound 131, 2-((7-amino-6-fluorobenzo[d]oxazol-2-yl)amino)-4-(2-chloro-4-methylphenyl)-6-methyl-N-((1-(2,2,2-trifluoroethyl)-1H-pyrazol-4-yl)methyl)-1,4-dihydropyrimidine-5-carboxamide] | 0.19 | 0.19 | 3.06 | 3.06 |  |  |  | 193.1 1 × 10^−6 cm/sec | 1.56 | 18.69 |  |  |  |  |  |  | 
4 | CC1=C(C(=O)Nc2cc(C(=O)O)ccn2)C(c2ccc(N3CCOCC3)cc2Cl)N=C(Nc2nc3ccc(F)cc3o2)N1 (stereo not drawn) [Compound 59, 2-(4-(2-chloro-4-morpholinphenyl)-2-((6-fluorobenzo[d]oxazol-2-yl)amino)-6-methyl-1,4-dihydropyrimidine-5-carboxamido)isonicotinic acid] |  | 0.43 | 3.85 | 3.85 | 26.5 1 × 10^−6 cm/sec | >89 | >30 |  |  |  |  |  |  |  |  |  | 
5 | CC1=C(C(=O)Nc2cccc(-c3nnn[nH]3)c2)C(c2ccccc2Cl)N=C(Nc2nc3ccccc3o2)N1 (stereo not drawn) [Compound 175, N-(3-(1H-tetrahydro-5-yl)phenyl)-2-(benzo[d]oxazol-2-ylamino)-4-(2-chlorophenyl)-6-methyl-1,4-dihydropyrimidine-5-carboxamide] | 19.3 | 19.3 | 34.3 | 34.3 |  |  |  | 5.0 1 × 10^−6 cm/sec | 47.5 | >30 |  |  |  |  |  |  | 
6 | CC1=C(C(=O)NCc2cnn(C)c2C)C(c2ccc(C)cc2Cl)N=C(Nc2nc3ccc(F)cc3o2)N1 (stereo not drawn) [Compound 124] | 0.49 | 0.49 | 3.43 | 3.43 |  |  |  | 460.2 1 × 10^−6 cm/sec | <1 | 2.993 |  |  |  |  |  |  | 
7 | CC1=C(C(=O)Nc2nncs2)C(c2cc(Cl)ccc2Cl)N=C(Nc2nc3ccccc3o2)N1 (stereo not drawn) [Compound 270, 2-(benzo[d]oxazol-2-ylamino)-4-(2,5-dichlorophenyl)-6-methyl-N-(1,3,4-thiadiazol-2-yl)-1,4-dihydropyrimidine-5-carboxamide] |  |  |  |  |  |  |  | 2.9 1 × 10^−6 cm/sec | <1 |  |  |  |  |  | 6.11 | 10.9 | >30
8 | CC1=C(C(=O)Nc2cc(C(N)=O)ccn2)C(c2ccccc2Cl)N=C(Nc2nc3ccc(F)cc3o2)N1 (stereo not drawn) [Compound 38, N-(4-carbamoylpyridin-2-yl)-4-(2-chlorophenyl)-2-((6-fluorobenzo[d]oxazol-2-yl)amino)-6-methyl-1,4-dihydropyrimidine-5-carboxamide] | 4.85 | 4.85 | 19.3 | 19.3 | 15.5 1 × 10^−6 cm/sec | 2.4 | >30 |  |  |  |  |  |  |  |  |  | 
9 | CCn1cc(CNC(=O)C2=C(C)NC(Nc3nc4ccc(F)c(N)c4o3)=NC2c2ccccc2Cl)cn1 (stereo not drawn) [Compound 136, 2-((7-amino-6-fluorobenzo[d]oxazol-2-yl)amino)-4-(2-chlorophenyl)-N-((1-ethyl-1H-pyrazol-4-yl)methyl)-6-methyl-1,4-dihydropyrimidine-5-carboxamide] |  | 0.19 |  | 2.17 |  |  |  | 133.5 1 × 10^−6 cm/sec | 23.87 | 17.72 |  |  |  |  |  |  | 

Further lines, results first:

Row | IC50 (recombinant human GALK1; [3]) [µM] | IC50 (recombinant human GALK1; [4]) [µM] | IC50 (recombinant mouse GALK1; [5]) [µM] | IC50 (recombinant mouse GALK1; [6]) [µM] | Perm. (1 × 10^−6 cm/sec) (PAMPA permeability) | Sol. [1] [µg/mL] | Metab. Stabil. (m) ([2]; microsomal half-life) | Perm. (1 × 10^−6 cm/sec) (PAMPA permeability; PAMPA) | Sol. ([1]; aqueous kinetic solubility) [µg/mL] | Metab. Stabil. (m) ([2]; microsomal stability half-life) | hGALK IC50 (recombinant human GALK1; Tables 2-15, 35 μM ATP, 100 μM galactose, 1 h, bracketed figure after some values (e.g. −1.2) is undefined and not reported) | hGALK (μM) (recombinant human GALK1; recombinant human GALK1, Kinase-Glo Plus ATP depletion) | mGALK IC50 (recombinant mouse GALK1; Tables 2-15, 35 μM ATP, 100 μM galactose, 1 h, bracketed figure after some values is undefined and not reported) | mGALK (μM) (recombinant mouse GALK1; recombinant mouse GALK1, Kinase-Glo Plus ATP depletion) | IC50 (recombinant human GALK1; recombinant human GALK1, Kinase-Glo Plus ATP depletion, bracketed figure in the cell, e.g. (−1.2), is not defined in the text shown, read-out: hGALK) [µM] | IC50 (recombinant mouse GALK1; recombinant mouse GALK1, Kinase-Glo Plus ATP depletion, bracketed figure in the cell, e.g. (−1.2), is not defined in the text shown, read-out: mGALK) [µM] | Metab. Stabil. (m) ([2]; microsomal stability half-life, minutes) | SMILES
10 |  |  |  |  |  |  |  | <1.8 1 × 10^−6 cm/sec | <1 | >30 | inactive | in- active | inactive | in- active |  |  |  | CC1=C(C(=O)Nc2cccc(Br)c2)C(c2ccccc2Cl)N=C(Nc2nc3ccccc3o2)N1 (stereo not drawn) [Compound 147, 2-(benzo[d]oxazol-2-ylamino)-N-(3-bromophenyl)-4-(2-chlorophenyl)-6-methyl-1,4-dihydropyrimidine-5-carboxamide]
11 |  | 3.06 |  | 10.9 |  |  |  | 3.3 1 × 10^−6 cm/sec | 25.4 | >30 |  |  |  |  |  |  |  | CC1=C(C(=O)Nc2cc(C(=O)O)ccc2F)C(c2ccccc2Cl)N=C(Nc2nc3ccccc3o2)N1 (stereo not drawn) [Compound 210, 3-(2-(benzo[d]oxazol-2-ylamino)-4-(2-chlorophenyl)-6-methyl-1,4-dihydropyrimidine-5-carboxamido)-4-fluorobenzoic acid]
12 |  | 4.32 | 10.9 | 10.9 |  |  |  | 173.5 1 × 10^−6 cm/sec | <1 | >30 |  |  |  |  |  |  |  | CC1=C(C(=O)Nc2ccccn2)C(c2ccccc2Cl)N=C(Nc2nc3ccccc3o2)N1 (stereo not drawn) [Compound 214, 2-(benzo[d]oxazol-2-ylamino)-4-(2-chlorophenyl)-6-methyl-N-(pyridin-2-yl)-1,4-dihydropyrimidine-5-carboxamide]
13 | 4.32 | 4.32 | 8.63 | 8.63 |  |  |  | 543.4 1 × 10^−6 cm/sec | <1 | 8.495 |  |  |  |  |  |  |  | COC(=O)c1ccc(CNC(=O)C2=C(C)NC(Nc3nc4ccccc4o3)=NC2c2ccccc2Cl)cc1 (stereo not drawn) [Compound 223, methyl 4-((2-(benzo[d]oxazol-2-ylamino)-4-(2-chlorophenyl)-6-methyl-1,4-dihydropyrimidine-5-carboxamido)methyl)benzoate]
14 | 4.32 | 4.32 | 6.85 | 6.85 |  |  |  | <6.3 1 × 10^−6 cm/sec | <1 | >30 |  |  |  |  |  |  |  | CC1=C(C(=O)Nc2ccc(C(N)=O)cc2)C(c2ccccc2Cl)N=C(Nc2nc3ccccc3o2)N1 (stereo not drawn) [Compound 181, 2-(benzo[d]oxazol-2-ylamino)-N-(4-carbamoylphenyl)-4-(2-chlorophenyl)-6-methyl-1,4-dihydropyrimidine-5-carboxamide]
